How the values were obtained:
[1] = target: T1, γ-humulene synthase (SEQ ID No:24) (Abies grandis, UniProt O64405); assay: Kinetic parameters, metal ion requirement and substrate specificity of recombinant γ-humulene synthase; assay type: biochemical; conditions: for monoterpene product formed from geranyl diphosphate: GLC-MS; for Km: read-out: Km value for divalent metal ion
T1 construct: For further subcloning of the amplified, full-length cDNA into the pSBETa vector for high-level expression, the pGAG5 insert was amplified; made in house; host or cells: E. coli XL1-Blue/pGAG5 or E. coli BL21(DE3)/pSBAG5
T1 sequence (O64405 1-593): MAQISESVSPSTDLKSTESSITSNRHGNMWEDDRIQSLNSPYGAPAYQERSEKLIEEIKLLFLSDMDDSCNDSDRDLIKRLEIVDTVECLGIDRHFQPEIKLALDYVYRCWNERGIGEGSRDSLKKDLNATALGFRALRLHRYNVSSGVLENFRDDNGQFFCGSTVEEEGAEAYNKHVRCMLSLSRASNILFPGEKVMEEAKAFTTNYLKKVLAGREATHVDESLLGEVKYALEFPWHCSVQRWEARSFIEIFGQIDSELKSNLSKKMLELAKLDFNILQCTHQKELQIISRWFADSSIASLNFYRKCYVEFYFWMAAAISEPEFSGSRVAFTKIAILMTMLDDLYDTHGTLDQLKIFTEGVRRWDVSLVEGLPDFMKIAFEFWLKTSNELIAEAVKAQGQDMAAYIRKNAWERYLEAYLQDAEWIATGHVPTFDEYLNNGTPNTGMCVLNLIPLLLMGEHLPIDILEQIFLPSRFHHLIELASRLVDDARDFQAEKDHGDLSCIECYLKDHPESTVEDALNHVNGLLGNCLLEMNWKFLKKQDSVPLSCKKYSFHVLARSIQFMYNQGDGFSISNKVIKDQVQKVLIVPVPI
Description: (§1) The assay for recombinant sesquiterpene synthase (cyclase) activity was performed in 1 ml of buffer (extraction buffer without MnCl2 or the polymeric adsorbents) containing 3.5 μM [1-^3H]farnesyl diphosphate and the total protein extracted from a 5 ml bacterial culture to produce 10^5-10^6 dpm of product in 2 h at 31° C. The incubation mixture was overlaid with 1 ml pentane to trap volatile products. After incubation, the reaction mixture was extracted with pentane (3×1 ml) and the combined extract was passed through a MgSO4-silica gel column to provide the terpene hydrocarbon fractions as before. The columns were subsequently eluted with 3×1 ml of ether to collect any oxygenated products, and an aliquot of each fraction was taken for liquid scintillation counting to determine conversion rate. The monoterpene synthase and diterpene synthase activity assays were similarly performed as described in detail elsewhere (LaFever, R. E., et al., (1994) Arch. Biochem. Biophys. 313, 139-149; Bohlmann, J., et al., (1997) J. Biol. Chem. 272, 21784-21792; Lewinsohn, E., et al., (1991) Plant Physiol. 96, 38-43).
(§2) The substrate specificity and other kinetic. parameters of γ-humulene synthase (SEQ ID No:24) and δ-selinene synthase (SEQ ID No:20) were investigated in order to confirm the identification and classification of these enzymes. […] Neither of these sesquiterpene synthases requires K^+ or other monovalent cation for activity.
(§3) Substrate specificity of δ-selinene synthase (SEQ ID No:20) and γ-humulene synthase (SEQ ID No:24) was evaluated by comparing farnesyl diphosphate (C15) to geranyl diphosphate (C10) and geranylgeranyl diphosphate (C20) at saturation as precursors of the respective terpene olefins. […] The identities of the monoterpene products produced by the sesquiterpene synthases were determined by GLC-MS and are set forth in FIG. 4.

[2] = target: T2, δ-selinene synthase (SEQ ID No:20) (Abies grandis, UniProt O64404); assay: Kinetic parameters, metal ion requirement and substrate specificity of recombinant δ-selinene synthase; assay type: biochemical; conditions: for Km: read-out: Km value for divalent metal ion
T2 construct: made in house; host or cells: E. coli XL1-Blue/pGAG4 or E. coli BL21(DE3)/pSBAG4
T2 sequence (O64404 1-581): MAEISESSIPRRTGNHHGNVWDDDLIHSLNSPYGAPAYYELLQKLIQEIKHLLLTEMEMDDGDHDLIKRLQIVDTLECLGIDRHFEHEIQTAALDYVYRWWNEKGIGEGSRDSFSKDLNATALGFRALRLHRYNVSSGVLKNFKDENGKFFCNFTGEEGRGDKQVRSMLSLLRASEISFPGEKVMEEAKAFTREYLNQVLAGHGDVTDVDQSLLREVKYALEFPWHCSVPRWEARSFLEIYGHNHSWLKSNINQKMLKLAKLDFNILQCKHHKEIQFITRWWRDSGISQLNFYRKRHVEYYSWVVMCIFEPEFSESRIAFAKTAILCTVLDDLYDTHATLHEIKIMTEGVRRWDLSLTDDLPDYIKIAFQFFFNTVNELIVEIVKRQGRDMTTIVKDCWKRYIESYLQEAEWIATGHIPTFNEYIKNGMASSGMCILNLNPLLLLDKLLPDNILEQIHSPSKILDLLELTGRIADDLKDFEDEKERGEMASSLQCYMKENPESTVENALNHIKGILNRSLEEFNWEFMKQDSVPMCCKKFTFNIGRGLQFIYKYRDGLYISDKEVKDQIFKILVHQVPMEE
Description: as §1, §2, §3

[3] = system: partially purified inducible sesquiterpene synthases; assay: Sesquiterpene synthase assay with partially purified extract of wounded grand fir stems; assay type: biochemical, Abies grandis; conditions: partially purified inducible sesquiterpene synthases from wounded stems; read-out: Km value for [1-3H]farnesyl diphosphate
Excerpt: Grand fir saplings in active growth were used as the enzyme source for determination of constitutive terpenoid synthases and of terpenoid synthases which had been induced in wounded stems by a standard wounding protocol (Funk, C., et al., (1994) Plant Physiol. 106, 999-1005). Stems from control saplings and saplings eight days after wounding (usually ten saplings) were harvested by removing the top and lateral growth, and cutting at about 5 cm from the base. The stems were chopped into 5-7 cm segments, frozen in liquid N2 and, following removal of any needles, were ground to a powder in a liquid N2-chilled No. 1 Wiley mill. The frozen powder was added to chilled extraction buffer (5 ml/g fresh tissue weight) consisting of 10 mM dibasic potassium phosphate and 1.8 mM monobasic potassium phosphate (pH 7.3), 140 mM NaCl, 20 mM β-mercaptoethanol, 10 mM MgCl2, 5 mM MnCl2, 10% (v/v) glycerol and 1% (w/v) each of polyvinylpyrrolidone (Mr 40,000) and polyvinylpolypyrrolidone. […]
Liquid scintillation counting was performed in 10 ml toluene:ethanol (7:3, v/v) containing 0.4% (w/v) Omnifluor (DuPont-NEN) at a ^3H counting efficiency of 43%. Protein concentrations were determined by the method of Bradford (Bradford, M. M. (1976) Anal. Biochem. 72, 248-254) using the Bio-Rad reagent and bovine serum albumin as standard. […]

[4] = system: insect larvae; conditions: present in paper made from trees of the genus Abies; cited from earlier work
[5] = substrate: CC(C)=CCC/C(C)=C/CC/C(C)=C/CO[P@@](=O)(O)OP(=O)(O)O; assay: Kinetic parameters, metal ion requirement and substrate specificity of recombinant γ-humulene synthase; assay type: biochemical, Abies grandis; conditions: other: γ-humulene synthase; estimated; 31.0 °C
Description: as §1, with “The monoterpene synthase and diterpene synthase activity assays were similarly performed as described in detail elsewhere (LaFever, R. E., et al., (1994) Arch. Biochem. Biophys. 313, 139-149; Bohlmann, J., et al., (1997) J. Biol. Chem. 272, 21784-21792; Lewinsohn, E., et al., (1991) Plant Physiol. 96, 38-43).” left out
as §3

[6] = substrate: CC(C)=CCC/C(C)=C/CC/C(C)=C/CO[P@@](=O)(O)OP(=O)(O)O; assay: Kinetic parameters, metal ion requirement and substrate specificity of recombinant δ-selinene synthase; assay type: biochemical, Abies grandis; conditions: other: δ-selinene synthase; estimated; 31.0 °C
Description: as §1, with “The monoterpene synthase and diterpene synthase activity assays were similarly performed as described in detail elsewhere (LaFever, R. E., et al., (1994) Arch. Biochem. Biophys. 313, 139-149; Bohlmann, J., et al., (1997) J. Biol. Chem. 272, 21784-21792; Lewinsohn, E., et al., (1991) Plant Physiol. 96, 38-43).” left out
as §3

Molecule: C=C/C(C)=C/CC=C(C)C [E-ocimene]
- monoterpene product formed from geranyl diphosphate [1]: not detectable
- contribution to monoterpene products formed from geranyl diphosphate ([2]; GLC-MS): 22.4%

Molecule: [Mn+2] [Mn^2+]
- metal ion utilization in the cyclization reaction [1]: comparable velocities
- Km [1]: ~25 µM
- maximum rate relative to that with Mg2+ at saturation [2]: less than 10%
- Km [2]: ~25 µM

Molecule: C=C(C)[C@H]1CC=C(C)CC1 [Limonene]
- monoterpene product formed from geranyl diphosphate [1]: principal monoterpene product
- monoterpene product formed from geranyl diphosphate ([2]; GLC-MS): principal monoterpene product

Molecule: [Mg+2] [Mg^2+]
- metal ion utilization in the cyclization reaction [1]: comparable velocities
- Km [1]: ~125 µM
- Km [2]: ~125 µM

Molecule: CC(C)=CCC/C(C)=C/CC/C(C)=C/CO[P@@](=O)(O)OP(=O)(O)O [[1-^3H]farnesyl diphosphate]
- Km [3]: ~0.4 µM

Molecule: COC(=O)C1=CC[C@H]([C@H](C)CC(=O)CC(C)C)CC1 [Juvabione]
- effect on maturation of insect larvae [4]: inhibits maturation of insect larvae

Molecule: C=C1C2CCC(C2)C1(C)C (centres unmarked) [camphene]
- monoterpene product formed from geranyl diphosphate [1]: detectable amounts
- monoterpene product formed from geranyl diphosphate ([2]; GLC-MS): does not produce

B1: γ-humulene synthase (SEQ ID No:24) (Abies grandis) (protein)
chain: T1 sequence (O64405 1-593)
notes: For further subcloning of the amplified, full-length cDNA into the pSBETa vector for high-level expression, the pGAG5 insert was amplified; made in house; host or cells: E. coli XL1-Blue/pGAG5 or E. coli BL21(DE3)/pSBAG5
- Km [5]: 4.5 µM

B2: δ-selinene synthase (SEQ ID No:20) (Abies grandis) (protein)
chain: T2 sequence (O64404 1-581)
notes: made in house; host or cells: E. coli XL1-Blue/pGAG4 or E. coli BL21(DE3)/pSBAG4
- Km [6]: 1.5 µM

— patent US6451576B1, “Sesquiterpene synthases from grand fir (Abies grandis), and methods of use” (Washington State University Research Foundation, priority 1998, dated 2002)
